Counter-ions that a name gives are not always drawn.
melting point: 186 to 190 °C
Structure (SMILES): O=C(c1ccc(-c2ccncc2)nc1)N1CCN(S(=O)(=O)c2cc3cc(Cl)ccc3[nH]2)CC1 (as salt: hydrochloride) [Example 1, 1-(5-Chloroindol-2-ylsulphonyl)-4-[6-(4-pyridyl)nicotinoyl]piperazine]

Source: patent US6723723B1, “Heterocyclic derivatives as inhibitors of factor Xa” (AstraZeneca, priority 1999, dated 2004)
